Assay results reported in ChEMBL document CHEMBL4507269, “Data for DCP probe BAY-386” (2021).

Experiments:
[1] = system: Tyrosine-protein kinase ABL1 (Homo sapiens), P00519 [H396P]; settings: Compound concentration 1000.0 nM
[2] = molecular target: Discoidin domain-containing receptor 2 (Homo sapiens) (UniProt Q16832); settings: Compound concentration 1000.0 nM
[3] = molecular target: Serine/threonine-protein kinase LATS1 (Homo sapiens) (UniProt O95835); settings: Compound concentration 1000.0 nM
Chain of Serine/threonine-protein kinase LATS1 (Homo sapiens) (O95835 whole entry): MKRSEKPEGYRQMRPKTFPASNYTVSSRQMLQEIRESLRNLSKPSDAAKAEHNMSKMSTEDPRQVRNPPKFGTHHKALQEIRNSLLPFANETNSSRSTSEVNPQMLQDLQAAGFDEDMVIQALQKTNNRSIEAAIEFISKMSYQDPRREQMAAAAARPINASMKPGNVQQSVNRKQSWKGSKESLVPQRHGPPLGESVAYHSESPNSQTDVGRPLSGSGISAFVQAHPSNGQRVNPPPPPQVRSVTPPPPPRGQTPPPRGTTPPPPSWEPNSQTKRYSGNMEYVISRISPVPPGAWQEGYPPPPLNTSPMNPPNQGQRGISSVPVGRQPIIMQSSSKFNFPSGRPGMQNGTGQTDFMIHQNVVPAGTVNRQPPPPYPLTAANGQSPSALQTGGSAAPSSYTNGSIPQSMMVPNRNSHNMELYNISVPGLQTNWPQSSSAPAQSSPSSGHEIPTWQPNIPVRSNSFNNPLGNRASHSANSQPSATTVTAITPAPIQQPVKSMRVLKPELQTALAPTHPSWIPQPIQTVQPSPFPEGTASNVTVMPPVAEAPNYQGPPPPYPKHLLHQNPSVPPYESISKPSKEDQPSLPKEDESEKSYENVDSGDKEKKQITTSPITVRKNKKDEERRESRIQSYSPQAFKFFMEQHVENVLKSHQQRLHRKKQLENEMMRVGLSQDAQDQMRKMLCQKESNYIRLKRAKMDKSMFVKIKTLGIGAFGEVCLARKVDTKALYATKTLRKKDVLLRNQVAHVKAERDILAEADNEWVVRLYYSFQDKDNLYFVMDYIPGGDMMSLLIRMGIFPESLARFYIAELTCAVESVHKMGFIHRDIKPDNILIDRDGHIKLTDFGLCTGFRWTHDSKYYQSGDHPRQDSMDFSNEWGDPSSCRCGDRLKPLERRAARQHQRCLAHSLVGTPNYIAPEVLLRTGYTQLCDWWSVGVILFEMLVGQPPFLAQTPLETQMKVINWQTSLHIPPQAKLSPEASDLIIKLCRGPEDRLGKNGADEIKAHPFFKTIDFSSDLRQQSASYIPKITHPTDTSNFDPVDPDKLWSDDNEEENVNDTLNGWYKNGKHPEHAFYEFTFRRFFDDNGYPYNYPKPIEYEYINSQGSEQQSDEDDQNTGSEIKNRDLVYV

[4] = molecular target: Muscarinic acetylcholine receptor M5 (Homo sapiens) (UniProt P08912); settings: Compound concentration 10.0 uM
[5] = molecular target: Mitogen-activated protein kinase kinase kinase 1 (Homo sapiens) (UniProt Q13233); settings: Compound concentration 1000.0 nM
[6] = molecular target: 5-hydroxytryptamine receptor 1B (Homo sapiens) (UniProt P28222); settings: Compound concentration 10.0 uM
Chain of 5-hydroxytryptamine receptor 1B (Homo sapiens) (P28222 whole entry, canonical isoform): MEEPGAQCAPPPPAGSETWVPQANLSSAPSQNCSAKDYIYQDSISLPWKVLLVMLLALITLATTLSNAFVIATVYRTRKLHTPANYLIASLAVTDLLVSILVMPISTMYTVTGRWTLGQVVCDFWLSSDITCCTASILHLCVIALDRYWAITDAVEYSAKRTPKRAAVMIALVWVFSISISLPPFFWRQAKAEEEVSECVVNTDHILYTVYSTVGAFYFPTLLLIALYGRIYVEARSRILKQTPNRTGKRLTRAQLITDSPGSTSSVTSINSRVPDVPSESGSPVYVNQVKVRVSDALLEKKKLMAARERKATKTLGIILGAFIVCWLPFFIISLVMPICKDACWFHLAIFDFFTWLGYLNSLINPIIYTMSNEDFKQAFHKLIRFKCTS

[7] = molecular target: Casein kinase I isoform gamma-1 (Homo sapiens) (UniProt Q9HCP0); settings: Compound concentration 1000.0 nM
[8] = molecular target: Epithelial discoidin domain-containing receptor 1 (Homo sapiens) (UniProt Q08345); settings: Compound concentration 1000.0 nM
[9] = molecular target: Phosphatidylinositol 4-phosphate 5-kinase type-1 gamma (Homo sapiens) (UniProt O60331); settings: Compound concentration 1000.0 nM
[10] = molecular target: Cyclin-dependent kinase 9 (Homo sapiens) (UniProt P50750); settings: Compound concentration 1000.0 nM
Chain of Cyclin-dependent kinase 9 (Homo sapiens) (P50750 whole entry): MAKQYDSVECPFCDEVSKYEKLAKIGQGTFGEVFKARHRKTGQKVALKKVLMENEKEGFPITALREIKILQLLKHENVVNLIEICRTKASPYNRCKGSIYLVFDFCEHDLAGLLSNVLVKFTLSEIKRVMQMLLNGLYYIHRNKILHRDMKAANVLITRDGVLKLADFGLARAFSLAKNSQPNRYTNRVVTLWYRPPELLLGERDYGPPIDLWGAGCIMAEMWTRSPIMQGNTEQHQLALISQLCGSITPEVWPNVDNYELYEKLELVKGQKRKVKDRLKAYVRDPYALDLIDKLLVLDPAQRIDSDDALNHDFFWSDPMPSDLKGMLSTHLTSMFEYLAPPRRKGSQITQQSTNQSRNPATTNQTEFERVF

[11] = system: Epidermal growth factor receptor (Homo sapiens), P00533 [UNDEFINED MUTATION]; settings: Compound concentration 1000.0 nM
[12] = molecular target: Ribosomal protein S6 kinase alpha-5 (Homo sapiens) (UniProt O75582); settings: Compound concentration 1000.0 nM
[13] = molecular target: Ribosomal protein S6 kinase alpha-3 (Homo sapiens) (UniProt P51812); settings: Compound concentration 1000.0 nM
[14] = molecular target: Serine/threonine-protein kinase BRSK2 (Homo sapiens) (UniProt Q8IWQ3); settings: Compound concentration 1000.0 nM
[15] = molecular target: Rhodopsin kinase GRK1 (Homo sapiens) (UniProt Q15835); settings: Compound concentration 1000.0 nM
[16] = molecular target: G protein-coupled receptor kinase 3 (Homo sapiens) (UniProt P35626); settings: Compound concentration 1000.0 nM
[17] = molecular target: Casein kinase I isoform alpha-like (Homo sapiens) (UniProt Q8N752); settings: Compound concentration 1000.0 nM
Chain of Casein kinase I isoform alpha-like (Homo sapiens) (Q8N752 whole entry, canonical isoform): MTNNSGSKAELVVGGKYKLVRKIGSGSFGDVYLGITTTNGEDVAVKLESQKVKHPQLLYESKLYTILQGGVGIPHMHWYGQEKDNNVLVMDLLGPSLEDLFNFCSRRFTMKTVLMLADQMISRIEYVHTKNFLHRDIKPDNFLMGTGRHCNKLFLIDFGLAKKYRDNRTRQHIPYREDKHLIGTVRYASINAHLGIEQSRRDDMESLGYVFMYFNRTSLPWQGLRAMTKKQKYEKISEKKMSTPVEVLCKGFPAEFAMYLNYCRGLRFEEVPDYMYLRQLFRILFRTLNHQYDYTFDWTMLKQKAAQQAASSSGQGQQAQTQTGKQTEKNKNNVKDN

[18] = molecular target: Tyrosine-protein kinase JAK1 (Homo sapiens) (UniProt P23458); settings: Compound concentration 1000.0 nM
Chain of Tyrosine-protein kinase JAK1 (Homo sapiens) (P23458 whole entry): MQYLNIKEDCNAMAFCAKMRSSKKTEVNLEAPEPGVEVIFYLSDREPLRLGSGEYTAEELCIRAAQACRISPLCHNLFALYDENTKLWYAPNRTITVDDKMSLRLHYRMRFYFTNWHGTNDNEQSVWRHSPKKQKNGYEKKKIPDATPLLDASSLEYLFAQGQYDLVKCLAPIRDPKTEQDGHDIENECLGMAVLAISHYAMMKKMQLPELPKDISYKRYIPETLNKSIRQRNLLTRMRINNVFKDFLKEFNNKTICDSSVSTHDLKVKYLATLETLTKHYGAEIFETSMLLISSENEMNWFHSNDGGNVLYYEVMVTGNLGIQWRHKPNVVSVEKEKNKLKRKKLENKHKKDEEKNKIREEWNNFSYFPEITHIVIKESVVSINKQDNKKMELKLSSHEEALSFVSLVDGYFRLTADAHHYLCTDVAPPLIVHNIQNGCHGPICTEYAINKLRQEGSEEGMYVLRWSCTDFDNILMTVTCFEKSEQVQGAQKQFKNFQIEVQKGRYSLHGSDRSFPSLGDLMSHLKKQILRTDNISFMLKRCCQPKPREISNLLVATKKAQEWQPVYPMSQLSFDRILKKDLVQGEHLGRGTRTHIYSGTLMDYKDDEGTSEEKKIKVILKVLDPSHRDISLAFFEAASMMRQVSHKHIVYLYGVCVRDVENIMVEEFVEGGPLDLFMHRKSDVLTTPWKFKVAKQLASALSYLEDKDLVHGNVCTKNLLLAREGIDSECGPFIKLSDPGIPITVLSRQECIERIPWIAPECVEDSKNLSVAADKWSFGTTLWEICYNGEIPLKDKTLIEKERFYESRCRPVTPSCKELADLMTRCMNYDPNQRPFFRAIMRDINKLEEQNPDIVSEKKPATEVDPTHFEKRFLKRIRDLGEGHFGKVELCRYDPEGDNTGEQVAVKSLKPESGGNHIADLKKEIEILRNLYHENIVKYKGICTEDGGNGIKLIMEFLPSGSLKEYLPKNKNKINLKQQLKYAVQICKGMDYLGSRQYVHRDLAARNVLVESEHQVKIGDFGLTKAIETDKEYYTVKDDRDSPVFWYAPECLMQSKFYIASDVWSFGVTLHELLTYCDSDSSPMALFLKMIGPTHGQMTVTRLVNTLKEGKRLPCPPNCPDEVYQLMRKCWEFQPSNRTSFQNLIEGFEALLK

[19] = molecular target: Serine/threonine-protein kinase PRP4 homolog (Homo sapiens) (UniProt Q13523); settings: Compound concentration 1000.0 nM
[20] = molecular target: Ribosomal protein S6 kinase alpha-2 (Homo sapiens) (UniProt Q15349); settings: Compound concentration 1000.0 nM
Chain of Ribosomal protein S6 kinase alpha-2 (Homo sapiens) (Q15349 whole entry, canonical isoform): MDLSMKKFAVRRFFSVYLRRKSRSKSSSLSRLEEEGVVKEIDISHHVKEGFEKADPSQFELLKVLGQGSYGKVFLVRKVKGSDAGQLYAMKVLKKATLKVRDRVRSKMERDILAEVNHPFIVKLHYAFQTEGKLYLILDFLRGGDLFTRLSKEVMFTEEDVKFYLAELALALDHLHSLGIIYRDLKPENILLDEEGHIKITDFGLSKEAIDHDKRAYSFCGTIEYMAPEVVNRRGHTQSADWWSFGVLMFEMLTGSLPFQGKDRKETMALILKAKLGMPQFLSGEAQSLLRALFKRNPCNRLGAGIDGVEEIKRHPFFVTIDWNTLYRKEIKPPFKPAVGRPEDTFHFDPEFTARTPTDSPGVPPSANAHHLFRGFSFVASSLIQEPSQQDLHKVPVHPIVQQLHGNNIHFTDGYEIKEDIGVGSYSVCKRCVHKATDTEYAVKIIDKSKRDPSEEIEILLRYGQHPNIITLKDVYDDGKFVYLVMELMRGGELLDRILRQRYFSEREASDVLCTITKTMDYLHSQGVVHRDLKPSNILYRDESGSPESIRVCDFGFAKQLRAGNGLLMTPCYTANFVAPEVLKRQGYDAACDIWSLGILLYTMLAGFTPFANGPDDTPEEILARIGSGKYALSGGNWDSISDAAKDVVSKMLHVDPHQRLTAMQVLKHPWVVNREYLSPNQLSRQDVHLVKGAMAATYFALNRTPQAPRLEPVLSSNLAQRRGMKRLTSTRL

[21] = molecular target: Casein kinase I isoform alpha (Homo sapiens) (UniProt P48729); settings: Compound concentration 1000.0 nM
[22] = system: Phosphatidylinositol 4,5-bisphosphate 3-kinase catalytic subunit alpha isoform (Homo sapiens), P42336 [E545K]; settings: Compound concentration 1000.0 nM
[23] = molecular target: Calcium/calmodulin-dependent protein kinase type 1D (Homo sapiens) (UniProt Q8IU85); settings: Compound concentration 1000.0 nM
[24] = molecular target: Atypical kinase COQ8A, mitochondrial (Homo sapiens) (UniProt Q8NI60); settings: Compound concentration 1000.0 nM
[25] = molecular target: Cyclin-dependent kinase 11A (Homo sapiens) (UniProt Q9UQ88); settings: Compound concentration 1000.0 nM
[26] = molecular target: Mitogen-activated protein kinase kinase kinase 15 (Homo sapiens) (UniProt Q6ZN16); settings: Compound concentration 1000.0 nM
[27] = system: Phosphatidylinositol 4,5-bisphosphate 3-kinase catalytic subunit alpha isoform (Homo sapiens), P42336 [I800L]; settings: Compound concentration 1000.0 nM
[28] = system: Epidermal growth factor receptor (Homo sapiens), P00533 [G719S]; settings: Compound concentration 1000.0 nM
[29] = molecular target: 3-phosphoinositide-dependent protein kinase 1 (Homo sapiens) (UniProt O15530); settings: Compound concentration 1000.0 nM
[30] = molecular target: Tyrosine-protein kinase ABL1 (Homo sapiens) (UniProt P00519); settings: Compound concentration 1000.0 nM
[31] = molecular target: Testis-specific serine/threonine-protein kinase 1 (Homo sapiens) (UniProt Q9BXA7); settings: Compound concentration 1000.0 nM
[32] = molecular target: Serine/threonine-protein kinase DCLK1 (Homo sapiens) (UniProt O15075); settings: Compound concentration 1000.0 nM
[33] = molecular target: Receptor-interacting serine/threonine-protein kinase 4 (Homo sapiens) (UniProt P57078); settings: Compound concentration 1000.0 nM
[34] = molecular target: Substance-P receptor (Homo sapiens) (UniProt P25103); test: NK1 (h) Eurofins-Cerep Cellular and Nuclear Receptor Functional Assays; settings: Compound concentration 10.0 uM
Chain of Substance-P receptor (Homo sapiens) (P25103 whole entry): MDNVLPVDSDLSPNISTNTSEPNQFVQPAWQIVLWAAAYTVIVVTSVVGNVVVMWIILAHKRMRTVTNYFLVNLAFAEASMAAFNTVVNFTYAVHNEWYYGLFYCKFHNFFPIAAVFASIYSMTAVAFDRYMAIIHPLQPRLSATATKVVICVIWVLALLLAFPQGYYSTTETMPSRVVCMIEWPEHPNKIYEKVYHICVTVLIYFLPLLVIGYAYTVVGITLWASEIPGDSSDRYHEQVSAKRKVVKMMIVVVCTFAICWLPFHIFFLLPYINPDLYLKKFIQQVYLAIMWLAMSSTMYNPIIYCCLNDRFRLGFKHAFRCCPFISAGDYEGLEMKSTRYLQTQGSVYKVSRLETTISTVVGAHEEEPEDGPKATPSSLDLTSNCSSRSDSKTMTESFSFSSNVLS

[35] = molecular target: Ribosomal protein S6 kinase alpha-1 (Homo sapiens) (UniProt Q15418); settings: Compound concentration 1000.0 nM
[36] = molecular target: D(1A) dopamine receptor (Homo sapiens) (UniProt P21728); settings: Compound concentration 10.0 uM
[37] = molecular target: Tyrosine-protein kinase ABL2 (Homo sapiens) (UniProt P42684); settings: Compound concentration 1000.0 nM
[38] = molecular target: Tyrosine-protein kinase Yes (Homo sapiens) (UniProt P07947); settings: Compound concentration 1000.0 nM
[39] = molecular target: Cyclin-dependent kinase 3 (Homo sapiens) (UniProt Q00526); settings: Compound concentration 1000.0 nM
Chain of Cyclin-dependent kinase 3 (Homo sapiens) (Q00526 whole entry, looked up, canonical isoform): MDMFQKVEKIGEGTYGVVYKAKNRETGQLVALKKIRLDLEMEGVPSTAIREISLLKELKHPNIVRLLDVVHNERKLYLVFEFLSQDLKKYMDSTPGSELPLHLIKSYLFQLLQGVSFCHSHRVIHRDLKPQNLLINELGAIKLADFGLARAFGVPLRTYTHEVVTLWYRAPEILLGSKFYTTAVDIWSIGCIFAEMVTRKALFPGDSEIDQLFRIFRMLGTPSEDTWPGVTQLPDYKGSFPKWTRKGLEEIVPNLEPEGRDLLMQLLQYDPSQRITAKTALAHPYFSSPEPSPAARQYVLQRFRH

[40] = molecular target: Phosphatidylinositol 4,5-bisphosphate 3-kinase catalytic subunit beta isoform (Homo sapiens) (UniProt P42338); settings: Compound concentration 1000.0 nM
[41] = molecular target: SNF-related serine/threonine-protein kinase (Homo sapiens) (UniProt Q9NRH2); settings: Compound concentration 1000.0 nM
[42] = molecular target: Death-associated protein kinase 3 (Homo sapiens) (UniProt O43293); settings: Compound concentration 1000.0 nM
[43] = molecular target: Phosphatidylinositol 3-kinase catalytic subunit type 3 (Homo sapiens) (UniProt Q8NEB9); settings: Compound concentration 1000.0 nM
[44] = molecular target: Alpha-1B adrenergic receptor (Homo sapiens) (UniProt P35368); settings: Compound concentration 10.0 uM

O=C(N1CCS(=O)(=O)CC1)N1C[C@H](c2ccc(OC(F)(F)F)cc2)C[C@H](c2nc(C3CC3)no2)C1 [BAY-386]
residual activity [1]: 100%
residual activity [2]: 100%
residual activity [3]: 100%
inhibition [4]: 4.1%
residual activity [5]: 100%
inhibition [6]: 30.8%
residual activity [7]: 100%
residual activity [8]: 100%
residual activity [9]: 100%
residual activity [10]: 100%
residual activity [11]: 55%
residual activity [12]: 100%
residual activity [13]: 100%
residual activity [14]: 100%
residual activity [15]: 92%
residual activity [16]: 100%
residual activity [17]: 100%
residual activity [18]: 100%
residual activity [19]: 97%
residual activity [20]: 100%
residual activity [21]: 100%
residual activity [22]: 90%
residual activity [23]: 91%
residual activity [24]: 100%
residual activity [25]: 0%
residual activity [26]: 100%
residual activity [27]: 68%
residual activity [28]: 99%
residual activity [29]: 94%
residual activity [30]: 84%
residual activity [31]: 95%
residual activity [32]: 100%
residual activity [33]: 97%
% Inhibition of Control Agonist Response (Mean n=2) [34]: 23.3%
% of Control Agonist Response (Mean n=2) [34]: 1.8%
residual activity [35]: 100%
inhibition [36]: 3.2%
residual activity [37]: 100%
residual activity [38]: 96%
residual activity [39]: 96%
residual activity [40]: 66%
residual activity [41]: 93%
residual activity [42]: 100%
residual activity [43]: 100%
inhibition [44]: 14.2%

Cc1noc([C@H]2C[C@@H](c3ccc(C(F)(F)F)cc3)CN(C(=O)N3CCS(=O)(=O)C3)C2)n1 [BAY-448]
residual activity [1]: 100%
residual activity [2]: 74%
residual activity [3]: 100%
inhibition [4]: -1.71%
residual activity [5]: 100%
inhibition [6]: 4.16%
residual activity [7]: 100%
residual activity [8]: 100%
residual activity [9]: 100%
residual activity [10]: 100%
residual activity [11]: 84%
residual activity [12]: 100%
residual activity [13]: 100%
residual activity [14]: 100%
residual activity [15]: 82%
residual activity [16]: 100%
residual activity [17]: 100%
residual activity [18]: 74%
residual activity [19]: 72%
residual activity [20]: 92%
residual activity [21]: 70%
residual activity [22]: 65%
residual activity [23]: 100%
residual activity [24]: 91%
residual activity [25]: 100%
residual activity [26]: 100%
residual activity [27]: 100%
residual activity [28]: 100%
residual activity [29]: 95%
residual activity [30]: 71%
residual activity [31]: 100%
residual activity [32]: 75%
residual activity [33]: 68%
% Inhibition of Control Agonist Response (Mean n=2) [34]: 2.1%
% of Control Agonist Response (Mean n=2) [34]: 0.3%
residual activity [35]: 100%
inhibition [36]: 10.6%
residual activity [37]: 100%
residual activity [38]: 100%
residual activity [39]: 100%
residual activity [40]: 99%
residual activity [41]: 100%
residual activity [42]: 100%
residual activity [43]: 90%
inhibition [44]: -1.18%
